Target: T1, GRK4 (Homo sapiens, UniProt P32298)
T1 construct: purchased Thermo Fisher Scientific (Life Technologies) SelectScreen
Test: SelectScreen Z'LYTE
Assay type: biochemical
Method in brief: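 Compound tested in SelectScreen activity assays, Z'LYTE for CSF1R, CDK1/cyclin B and MAP2K6 and Adapta for CAMK1. ATP for CAMK1 was listed as 10, and Km app was used for CSF1R. Results are expressed in percent.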

T1 sequence (P32298 whole entry): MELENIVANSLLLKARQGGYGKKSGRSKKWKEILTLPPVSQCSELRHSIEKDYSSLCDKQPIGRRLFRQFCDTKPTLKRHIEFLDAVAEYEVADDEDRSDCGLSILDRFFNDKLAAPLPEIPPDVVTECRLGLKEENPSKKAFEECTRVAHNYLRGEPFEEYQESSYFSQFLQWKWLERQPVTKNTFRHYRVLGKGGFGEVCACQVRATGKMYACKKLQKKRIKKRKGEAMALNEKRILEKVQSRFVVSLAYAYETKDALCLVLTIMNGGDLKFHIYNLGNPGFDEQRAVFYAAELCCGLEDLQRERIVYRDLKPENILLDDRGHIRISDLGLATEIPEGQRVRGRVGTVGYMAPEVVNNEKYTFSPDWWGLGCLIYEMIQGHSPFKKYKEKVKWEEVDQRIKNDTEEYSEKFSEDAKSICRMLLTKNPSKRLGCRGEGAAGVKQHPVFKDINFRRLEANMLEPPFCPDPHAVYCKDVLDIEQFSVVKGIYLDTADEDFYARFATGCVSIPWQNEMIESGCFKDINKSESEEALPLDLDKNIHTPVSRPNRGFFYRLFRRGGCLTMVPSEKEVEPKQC

SMILES: CN(C(=O)CN1CCOCC1)c1ccc2sc3c(-c4cccc5c(=O)cc(N6CC7CCC(C6)O7)oc45)cccc3c2c1 [NU5455]
- inhibition at 1 µM: 3.5%
